What was measured:
[1] = test system: LPS-stimulated TNFα production in THP-1 cells; assay: LPS-stimulated TNFα production inhibition test using human acute monocytic leukemia cell strain THP-1; format: cell-based; details: Homo sapiens, LPS 2.5 ng/mL, average values
Experimental: By the THP-1 assay, influence of a test compound on the TNFα production induced by LPS stimulation can be evaluated. The THP-1 cells (ATCC, Cat. TIB-202) were inoculated on a 96-well plate at a density of 1×10^5 cells/160 μL/well, a test compound was added in a volume of 20 μL, and the plate was incubated at 37° C. for 1 hour in a 5% CO2 incubator. Then, LPS in a volume of 20 μL (final concentration 2.5 ng/mL, Sigma, Cat. L2630) was added, and the plate was further incubated for 4 hours. After the incubation, the plate was centrifuged, and 100 μL of the supernatant was taken from each well, and used for evaluation of the amount of TNFα using HTRF (Cisbio, Cat. 62TNFPEB). In the measurement of the amount of TNFα, the supernatant was diluted twice with the medium, and then added to wells of a 384-well plate in a volume of 10 μL, then anti-TNFα-cryptate (5 μL), and anti-TNFα-XL665 (5 μL) were added, and the plate was left standing overnight. The fluorescence intensity ratio for the wavelengths of 620 and 665 nm (620 nm/665 nm) was measured with a microplate reader, and the amount of TNFα in the supernatant was calculated by using a calibration curve. The TNFα production suppression ratio observed with no addition of LPS was defined to be 100%, the TNFα production suppression ratio observed with no addition of the test compound was defined to be 0%, and IC50 of the test compound was calculated by using the 4-parameter logistic model of the data analysis software XLfit (ID Business Solutions Ltd.).

[2] = target: human IRAK-4 (Homo sapiens (Human), UniProt Q9NWZ3); assay: Measurement of human IRAK-4 inhibitory activity (TR-FRET, peptide substrate phosphorylation, 10 μM ATP); format: biochemical; details: 1 nM IRAK-4, 10 μM ATP, 23° C., 30 minutes; average values
Sequence of human IRAK-4 (Q9NWZ3 whole entry): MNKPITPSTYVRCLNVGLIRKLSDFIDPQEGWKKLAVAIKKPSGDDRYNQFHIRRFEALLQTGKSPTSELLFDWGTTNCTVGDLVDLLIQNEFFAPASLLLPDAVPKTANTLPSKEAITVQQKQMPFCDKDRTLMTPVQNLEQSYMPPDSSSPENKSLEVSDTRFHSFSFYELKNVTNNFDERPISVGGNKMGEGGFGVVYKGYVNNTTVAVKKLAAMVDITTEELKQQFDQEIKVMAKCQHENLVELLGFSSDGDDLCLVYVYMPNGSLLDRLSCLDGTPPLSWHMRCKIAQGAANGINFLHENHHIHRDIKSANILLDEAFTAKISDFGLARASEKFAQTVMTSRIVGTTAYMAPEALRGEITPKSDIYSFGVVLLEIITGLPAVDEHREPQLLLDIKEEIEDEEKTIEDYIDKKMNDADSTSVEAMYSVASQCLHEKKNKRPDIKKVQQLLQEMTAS
Experimental: For the measurement of the activity of the human IRAK-4 (Invitrogen, Cat. PV3362), phosphorylation of the IRAK-4 peptide substrate (biotin-KKKKRFSFKKSFKC) by the enzyme in the presence of 10 μM ATP (Sigma-Aldrich, Cat. A7699) was measured by the TR-FRET method. The enzymatic reaction was performed in a reaction buffer containing 50 mM HEPES (pH 7.2), 1 mM DTT, 0.1 mM Na3VO4, 5 mM MgCl2, 1 mM MnCl2, and 0.1% bovine serum albumin. For the measurement of the IRAK-4 inhibitory activity, a test compound was added to the reaction buffer containing 1 nM IRAK-4, 0.5 μM peptide substrate, and 10 μM ATP, and the mixture was incubated at 23° C. for 30 minutes. Then, a detection solution containing an antibody labeled with europium cryptate (0.3 μg/mL, the antibody was prepared by using the IRAK-4 peptide substrate as the antigen), streptavidin-XL665 (2 μg/mL, CisBio, Cat. 610SAXLB), 50 mM HEPES (pH 7.2), 0.1% BSA, 120 mM KF, and 66.7 mM EDTA (all the concentrations of the reagents are final concentrations) was added to terminate the reaction, and then the mixture was further incubated at 23° C. for 60 minutes. Fluorescence intensity was measured at wavelengths of 665 nm and 620 nm with a microplate reader, and the enzymatic activity was calculated as the ratio of fluorescence intensities at 665 nm and 620 nm (665 nm/620 nm).

| SMILES | IC50 ([1]; THP-1, 4 h) [nM] | IC50 [2] [nM] | IC50 ([1]; 4 hours) [nM] |
| --- | --- | --- | --- |
| O=C(Nc1nc2ccc(-c3cnc(CO[C@H]4CCC[C@@H]4O)nc3)cc2s1)C1CC(N2CCC(F)CC2)C1 (stereo partly drawn) [b-02-11] | 152 | 2.87 | – |
| O=C(Nc1nc2ccc(-c3cnc(CO[C@H]4CCC[C@@H]4O)nc3)cc2s1)C1CC(N2CC(F)(F)C2)C1 (stereo partly drawn) [b-02-12] | 170 | 3.37 | – |
| O=C(Nc1nc2ccc(-c3cnc(CO[C@H]4CCC[C@@H]4O)nc3)cc2s1)C1CC(N2CCC(F)(F)C2)C1 (stereo partly drawn) [b-02-13] | 175 | 3.77 | – |
| CO[C@H]1CCN(C2CC(C(=O)Nc3nc4ccc(-c5cnc(CO[C@H]6CCC[C@@H]6O)nc5)cc4s3)C2)C1 (stereo partly drawn) [b-02-14] | 164 | 2.41 | – |
| CO[C@@H]1CCN(C2CC(C(=O)Nc3nc4ccc(-c5cnc(CO[C@H]6CCC[C@@H]6O)nc5)cc4s3)C2)C1 (stereo partly drawn) [b-02-15] | 157 | 2.25 | – |
| O=C(Nc1nc2ccc(-c3cnc(CO[C@H]4CCC[C@@H]4O)nc3)cc2s1)C1CC(N2CCC[C@@H](F)C2)C1 (stereo partly drawn) [b-02-16] | 107 | 2.01 | – |
| O=C(Nc1nc2ccc(-c3cnc(CO[C@H]4CCC[C@@H]4O)nc3)cc2s1)C1CC(N2CCC[C@H](F)C2)C1 (stereo partly drawn) [b-02-17] | 120 | 1.59 | – |
| CC1(C)CN(C2CC(C(=O)Nc3nc4ccc(-c5cnc(CO[C@H]6CCC[C@@H]6O)nc5)cc4s3)C2)CCO1 (stereo partly drawn) [b-02-18] | 164 | 2.92 | – |
| C[C@@H]1CN(C2CC(C(=O)Nc3nc4ccc(-c5cnc(CO[C@H]6CCC[C@@H]6O)nc5)cc4s3)C2)C[C@H](C)O1 (stereo partly drawn) [b-02-19] | 144 | 2.54 | – |
| CC[C@H]1COCCN1C1CC(C(=O)Nc2nc3ccc(-c4cnc(CO[C@H]5CCC[C@@H]5O)nc4)cc3s2)C1 (stereo partly drawn) [b-02-20] | 78 | 4.28 | – |
| CC[C@@H]1COCCN1C1CC(C(=O)Nc2nc3ccc(-c4cnc(CO[C@H]5CCC[C@@H]5O)nc4)cc3s2)C1 (stereo partly drawn) [b-02-21] | 66 | 2.12 | – |
| CN1CCN(C2CC(C(=O)Nc3nc4ccc(-c5cnc(CO[C@H]6CCC[C@@H]6O)nc5)cc4s3)C2)CC1 (stereo partly drawn) [b-02-22] | 208 | 1.89 | – |
| O=C(Nc1nc2ccc(-c3cnc(CO[C@H]4CCC[C@@H]4O)nc3)cc2s1)C1CC(N2CCN(CC(F)(F)F)CC2)C1 (stereo partly drawn) [b-02-23] | 166 | 2.52 | – |
| O=C(Nc1nc2ccc(-c3cnc(CO[C@H]4CCC[C@@H]4O)nc3)cc2s1)C1CC(N2CCOCC3(CC3)C2)C1 (stereo partly drawn) [b-02-24] | 180 | 1.91 | – |
| COCCN1CCN(C2CC(C(=O)Nc3nc4ccc(-c5cnc(CO[C@H]6CCC[C@@H]6O)nc5)cc4s3)C2)CC1 (stereo partly drawn) [b-02-25] | 199 | 1.98 | – |
| C[C@H]1CCCN1C1CC(C(=O)Nc2nc3ccc(-c4cnc(CO[C@H]5CCC[C@@H]5O)nc4)cc3s2)C1 (stereo partly drawn) [b-02-26] | 126 | 1.75 | – |
| C[C@@H]1CCCN1C1CC(C(=O)Nc2nc3ccc(-c4cnc(CO[C@H]5CCC[C@@H]5O)nc4)cc3s2)C1 (stereo partly drawn) [b-02-27] | 159 | 1.48 | – |
| O=C(Nc1nc2ccc(-c3cnc(CO[C@H]4CCC[C@@H]4O)nc3)cc2s1)C1CC(N2CCN(C3CC3)CC2)C1 (stereo partly drawn) [b-02-28] | 103 | 2.17 | – |
| O=C(Nc1nc2ccc(-c3cnc(CO[C@H]4CCC[C@@H]4O)nc3)cc2s1)C1CC(NC23CC(C2)C3)C1 (stereo partly drawn) [b-02-29] | 124 | 2.43 | – |
| O=C(Nc1nc2ccc(-c3cnc(CO[C@H]4CCC[C@@H]4O)nc3)cc2s1)C1CC(N2CCOC(C3CC3)C2)C1 (stereo partly drawn) [b-02-30] | 137 | 4.12 | – |
| O=C(Nc1nc2ccc(-c3cnc(CO[C@H]4CCC[C@@H]4O)nc3)cc2s1)C1CC(N2C[C@@H]3C[C@H]2CO3)C1 (stereo partly drawn) [b-02-31] | 194 | 2.36 | – |
| CC(C)[C@H]1COCCN1C1CC(C(=O)Nc2nc3ccc(-c4cnc(CO[C@H]5CCC[C@@H]5O)nc4)cc3s2)C1 (stereo partly drawn) [b-02-32] | 41 | 2.37 | – |
| O=C(Nc1nc2ccc(-c3cnc(CO[C@H]4CCC[C@@H]4O)nc3)cc2s1)C1CC(N2CCOCC23CCC3)C1 (stereo partly drawn) [b-02-33] | 51 | 1.63 | – |

| SMILES | IC50 ([1]; THP-1, 4 h) [nM] | IC50 [2] [nM] | IC50 ([1]; 4 hours) [nM] |
| --- | --- | --- | --- |
| CC(C)[C@@H]1COCCN1C1CC(C(=O)Nc2nc3ccc(-c4cnc(CO[C@H]5CCC[C@@H]5O)nc4)cc3s2)C1 (stereo partly drawn) [b-02-34] | 116 | 2.52 | – |
| O=C(Nc1nc2ccc(-c3cnc(CO[C@H]4CCC[C@@H]4O)nc3)cc2s1)C1CC(N2CCOCC(F)(F)C2)C1 (stereo partly drawn) [b-02-35] | 140 | 2.52 | – |
| CC1COCCCN1C1CC(C(=O)Nc2nc3ccc(-c4cnc(CO[C@H]5CCC[C@@H]5O)nc4)cc3s2)C1 (stereo partly drawn) [b-02-36] | 145 | 1.82 | – |
| O=C(Nc1nc2ccc(-c3cnc(CO[C@H]4CCC[C@@H]4O)nc3)cc2s1)C1CC(N2CCOCC23CC3)C1 (stereo partly drawn) [b-02-37] | 94 | 2.22 | – |
| CC(=O)N1CCN(C2CC(C(=O)Nc3nc4ccc(-c5cnc(CO[C@H]6CCC[C@@H]6O)nc5)cc4s3)C2)CC1 (stereo partly drawn) [b-02-38] | 150 | 2.98 | – |
| COC[C@@H]1CCN(C2CC(C(=O)Nc3nc4ccc(-c5cnc(CO[C@H]6CCC[C@@H]6O)nc5)cc4s3)C2)C1 (stereo partly drawn) [b-02-39] | 182 | 1.9 | – |
| O=C(Nc1nc2ccc(-c3cnc(CO[C@H]4CCC[C@@H]4O)nc3)cc2s1)C1CC(N2CC[C@H](O)C2)C1 (stereo partly drawn) [b-02-40] | 139 | 1.62 | – |
| CN1CCN(C2CC(C(=O)Nc3nc4ccc(-c5cnc(CO[C@H]6CCC[C@@H]6O)nc5)cc4s3)C2)CC(F)(F)C1 (stereo partly drawn) [b-02-41] | 160 | 2.86 | – |
| N#CC12CC(NC3CC(C(=O)Nc4nc5ccc(-c6cnc(CO[C@H]7CCC[C@@H]7O)nc6)cc5s4)C3)(C1)C2 (stereo partly drawn) [b-02-42] | 123 | 1.93 | – |
| O=C(Nc1nc2ccc(-c3cnc(CO[C@H]4CCC[C@@H]4O)nc3)cc2s1)C1CC(N2CCC[C@@H]2C(F)(F)F)C1 (stereo partly drawn) [b-02-43] | 123 | 3.1 | – |
| O=C(Nc1nc2ccc(-c3cnc(CO[C@H]4CCC[C@@H]4O)nc3)cc2s1)C1CC(N2CCC[C@H]2C(F)(F)F)C1 (stereo partly drawn) [b-02-44] | 143 | 3.93 | – |
| CC1CC(F)(F)CN1C1CC(C(=O)Nc2nc3ccc(-c4cnc(CO[C@H]5CCC[C@@H]5O)nc4)cc3s2)C1 (stereo partly drawn) [b-02-46] | 171 | 3.55 | – |
| O=C(Nc1nc2ccc(-c3cnc(CO[C@H]4CCC[C@@H]4O)nc3)cc2s1)C1CC(NC2CC2)C1 (stereo partly drawn) [b-02-47] | 110 | 1.75 | – |
| O=C(Nc1nc2ccc(-c3cnc(CO[C@H]4CCC[C@@H]4O)nc3)cc2s1)C1CC(NC2CCC2)C1 (stereo partly drawn) [b-02-48] | 143 | 2.03 | – |
| CC12CC(NC3CC(C(=O)Nc4nc5ccc(-c6cnc(CO[C@H]7CCC[C@@H]7O)nc6)cc5s4)C3)(C1)C2 (stereo partly drawn) [b-02-49] | 119 | 2.52 | – |
| O=C(Nc1nc2ccc(-c3cnc(CO[C@H]4CCC[C@@H]4O)nc3)cc2s1)C1CC(NC2CCCC2)C1 (stereo partly drawn) [b-02-50] | 144 | 1.93 | – |
| O=C(Nc1nc2ccc(-c3cnc(CO[C@H]4CCC[C@@H]4O)nc3)cc2s1)C1CC(N2CC[C@H](OC(F)F)C2)C1 (stereo partly drawn) [b-02-51] | 146 | 2.17 | – |
| O=C(Nc1nc2ccc(-c3cnc(CO[C@H]4CCC[C@@H]4O)nc3)cc2s1)C1CC(NCC(F)F)C1 (stereo partly drawn) [b-02-52] | – | 2.6 | 176 |
| CN(CC(F)F)C1CC(C(=O)Nc2nc3ccc(-c4cnc(CO[C@H]5CCC[C@@H]5O)nc4)cc3s2)C1 (stereo partly drawn) [b-02-53] | 172 | 2.59 | – |
| O=C(Nc1nc2ccc(-c3cnc(CO[C@H]4CCC[C@@H]4O)nc3)cc2s1)C1CC(N2CCOC[C@@H]2C(F)(F)F)C1 (stereo partly drawn) [b-02-54] | 135 | 3.46 | – |
| O=C(Nc1nc2ccc(-c3cnc(CO[C@H]4CCC[C@@H]4O)nc3)cc2s1)C1CC(N2CCOC[C@H]2C(F)(F)F)C1 (stereo partly drawn) [b-02-55] | 150 | 2.97 | – |
| O=C(Nc1nc2ccc(-c3cnc(CO[C@H]4CCC[C@@H]4O)nc3)cc2s1)C1CC(NC2(C(F)F)CC2)C1 (stereo partly drawn) [b-02-56] | 109 | 1.76 | – |
